Measurements published in US8648076B2, “Cysteine protease inhibitors and their therapeutic applications” (Hybrigenics SA, priority 2005, dated 2014).
Read-outs that look alike come from different tables or passages of the source.

Experiments:
USP7 = target: T1, USP7 (Homo sapiens, UniProt Q93009); experiment: USP7 activity assay; type: biochemical
T1 construct: His tag (from pFastBac-HT vector) (N); made in house; host or cells: insect cells (Sf9 or High Five), baculovirus

Uch-L3 = target: T2, Uch-L3 (Homo sapiens, UniProt P15374); experiment: UCH-L3 activity assay; type: biochemical; settings: 400 nM Ub-AMC, 13 pM enzyme, 30 min pre-incubation at 25° C., 60 min at 37° C.; sigmoidal fit; AF: Autofluorescent; read-out: Uch-L3 (inhibition of cysteine protease activity)
T2 sequence (P15374 1-230): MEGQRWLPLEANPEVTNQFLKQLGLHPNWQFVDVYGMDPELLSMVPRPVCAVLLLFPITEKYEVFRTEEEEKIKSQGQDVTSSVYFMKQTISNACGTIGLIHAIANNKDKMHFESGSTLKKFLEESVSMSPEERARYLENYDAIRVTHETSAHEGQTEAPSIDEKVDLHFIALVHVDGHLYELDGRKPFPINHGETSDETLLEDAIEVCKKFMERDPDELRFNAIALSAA
Procedure, shortened: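 Compounds were pre-incubated with 13 pM Uch-L3 for 30 min at 25° C in pH 7.6 buffer with 0.05 mg/ml BSA. Reactions ran 60 min at 37° C with 400 nM Ub-AMC, were stopped with 100 mM acetic acid, and AMC fluorescence was read. Duplicates were expressed as % of no-compound control and fitted to a variable-slope sigmoid.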

USP5 = target: T3, USP5 (Homo sapiens, UniProt P45974); experiment: USP5 activity assay; type: biochemical; settings: 400 nM Ub-AMC, 300 pM enzyme, 30 min pre-incubation at 25° C., 60 min at 37° C.; sigmoidal fit; AF: Autofluorescent; read-out: USP 5 (inhibition of cysteine protease activity)
T3 sequence (P45974 1-858): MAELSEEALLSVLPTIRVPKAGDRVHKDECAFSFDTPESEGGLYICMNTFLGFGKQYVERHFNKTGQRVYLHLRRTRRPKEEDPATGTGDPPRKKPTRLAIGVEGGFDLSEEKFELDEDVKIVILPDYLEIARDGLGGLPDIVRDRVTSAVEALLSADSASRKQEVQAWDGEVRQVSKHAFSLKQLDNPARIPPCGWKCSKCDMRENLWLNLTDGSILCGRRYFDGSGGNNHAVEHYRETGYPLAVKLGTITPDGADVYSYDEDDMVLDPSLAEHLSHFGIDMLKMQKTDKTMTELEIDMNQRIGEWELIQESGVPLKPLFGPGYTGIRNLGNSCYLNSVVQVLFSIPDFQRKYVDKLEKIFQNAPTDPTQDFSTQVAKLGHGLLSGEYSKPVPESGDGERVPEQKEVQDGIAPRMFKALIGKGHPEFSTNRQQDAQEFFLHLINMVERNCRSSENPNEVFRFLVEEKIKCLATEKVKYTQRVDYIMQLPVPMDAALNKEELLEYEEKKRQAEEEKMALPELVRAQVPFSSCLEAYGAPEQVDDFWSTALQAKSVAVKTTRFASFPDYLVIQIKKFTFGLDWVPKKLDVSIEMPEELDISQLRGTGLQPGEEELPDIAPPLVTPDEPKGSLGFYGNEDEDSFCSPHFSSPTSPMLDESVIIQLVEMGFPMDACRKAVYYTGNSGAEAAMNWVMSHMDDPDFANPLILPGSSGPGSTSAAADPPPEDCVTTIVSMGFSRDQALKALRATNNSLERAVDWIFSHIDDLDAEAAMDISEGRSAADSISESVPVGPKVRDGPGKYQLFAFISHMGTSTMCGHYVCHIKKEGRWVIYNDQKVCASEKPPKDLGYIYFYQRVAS
Method: Bovine Serum Albumin 0.05 mg·ml^−1 pH7.6). Compounds stocks (100 mM) were stored at −20° C. in DMSO. […] Reactions were performed as duplicates in Black LJL 96 well plates (HE microplates; Molecular Devices; 20 μl final reaction volume). The substrate concentration for USP5 was 400 nM Ub-AMC (Boston Biochem). The concentrations of the enzyme (USP5) in specificity assays was 300 pM. The concentrations were determined in order to perform specificity assays under initial velocities at fixed substrate concentration. Compounds were pre-incubated with enzymes for 30 minutes at 25° C. Reactions were initiated by addition of substrate to the plates containing the enzymes (+/− compounds) diluted in assay buffer. Reactions were incubated for 60 minutes at 37° C. Reactions were stopped by adding acetic acid (100 mM final). Readings were performed on a Pherastar Fluorescent Reader (BMG). λ Emission 380 nm; λ Excitation=460 nm. Data (mean values +/− standard deviation) were analyzed as % of control (no compound) and plotted as percentage versus the Log of the compound concentration using GraphPad (Prism). Data were fitted to a sigmoidal model (variable slope).

[1] = test system: PC-3 prostate cancer cells; experiment: PC3 cell viability and proliferation assay (MTS); type: cell-based; settings: Homo sapiens, PC-3, 72 h, read-out: PC3 D3 GI50
[2] = test system: HCT116 colon cancer cells; experiment: HCT116 cell viability and proliferation assay (MTS); type: cell-based; settings: Homo sapiens, read-out: HCT116 D3 GI50
[3] = 400 nM Ub-AMC, 152 pM enzyme, 30 min pre-incubation at 25° C., 60 min at 37° C., sigmoidal fit, read-out: USP 7 (inhibition of cysteine protease activity)
[4] = PC3 cells, 72 hours incubation, MTS, mean of 3 independent experiments
[5] = HCT-116, HCT116 cells, 72 hours incubation, MTS, mean of 3 independent experiments

T1 sequence (Q93009 whole entry): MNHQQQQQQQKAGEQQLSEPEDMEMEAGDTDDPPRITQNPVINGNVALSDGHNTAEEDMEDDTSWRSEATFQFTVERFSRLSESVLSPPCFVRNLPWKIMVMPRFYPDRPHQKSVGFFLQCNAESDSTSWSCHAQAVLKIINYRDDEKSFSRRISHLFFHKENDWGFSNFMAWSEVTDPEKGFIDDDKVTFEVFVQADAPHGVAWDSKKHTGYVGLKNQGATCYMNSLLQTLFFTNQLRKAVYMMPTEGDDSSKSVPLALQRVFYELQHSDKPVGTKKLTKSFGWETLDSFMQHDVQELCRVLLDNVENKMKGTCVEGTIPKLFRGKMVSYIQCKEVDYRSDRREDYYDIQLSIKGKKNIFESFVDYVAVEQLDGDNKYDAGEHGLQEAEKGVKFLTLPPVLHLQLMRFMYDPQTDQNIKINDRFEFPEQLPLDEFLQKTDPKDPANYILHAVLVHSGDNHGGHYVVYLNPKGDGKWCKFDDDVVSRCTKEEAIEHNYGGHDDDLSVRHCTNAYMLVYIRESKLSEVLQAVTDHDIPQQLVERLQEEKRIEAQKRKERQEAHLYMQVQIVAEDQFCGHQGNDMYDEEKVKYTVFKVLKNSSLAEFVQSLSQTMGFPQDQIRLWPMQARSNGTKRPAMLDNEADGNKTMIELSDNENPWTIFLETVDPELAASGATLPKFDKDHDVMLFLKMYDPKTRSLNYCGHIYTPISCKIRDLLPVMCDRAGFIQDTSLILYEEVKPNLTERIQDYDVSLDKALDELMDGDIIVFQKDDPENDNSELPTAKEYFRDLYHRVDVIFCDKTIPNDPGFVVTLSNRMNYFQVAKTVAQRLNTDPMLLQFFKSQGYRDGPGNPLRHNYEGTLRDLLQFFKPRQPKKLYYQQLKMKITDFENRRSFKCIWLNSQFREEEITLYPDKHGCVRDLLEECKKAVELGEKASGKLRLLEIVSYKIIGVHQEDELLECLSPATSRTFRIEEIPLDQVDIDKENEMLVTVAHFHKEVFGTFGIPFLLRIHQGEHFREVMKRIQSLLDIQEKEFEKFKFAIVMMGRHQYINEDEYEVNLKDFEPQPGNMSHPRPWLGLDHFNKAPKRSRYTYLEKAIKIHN

Structure (SMILES)	IC50 (USP7) [nM]	IC50 (Uch-L3) [nM]	IC50 (USP5) [nM]	GI50 [1] [nM]	GI50 ([2]; HCT-116, 72 h) [nM]	IC50 (USP7; [3]) [nM]	GI50 [1, 4] [nM]	GI50 [2, 5] [nM]
N#Cc1nc2c(nc1C#N)-c1cc(Cl)c(Cl)cc1C2=O [Example 31, 6,7-dichloro-9-oxo-9H-indeno[1,2-b]pyrazine-2,3-dicarbonitrile]	591	104	329	2430	753	–	–	–
N#Cc1nc2c(nc1C(N)=O)-c1ccccc1/C2=N\O [Example 11, 2-cyano-9-[hydroxyimino]-9H-indeno[1,2-b]pyrazine-3-carboxylic acid amide]	–	600	2100	–	–	13000	1240	1600
CN(C)c1nc2c(nc1C#N)C(=O)c1ccccc1-2 [Example 4, 3-dimethylamino-9-oxo-9H-indeno[1,2-b]pyrazine-2-carbonitrile]	–	> 100000	> 100000	–	–	> 100000	> 10000	> 10000
COCCOc1nc2c(nc1C#N)C(=O)c1ccccc1-2 [Example 5, 3-(2-methoxy-ethoxy)-9-oxo-9H-indeno[1,2-b]pyrazine-2-carbonitrile]	–	24000	> 100000	–	–	> 100000	> 10000	> 10000
COCCON=C1c2ccccc2-c2nc(C(N)=O)c(C#N)nc21 [Example 34c, 2-Cyano-9-(2-methoxy-ethoxyimino)-9H-indeno[1,2-b]pyrazine-3-carboxylic acid amide]	2880	109	606	362	378	–	–	–
CCON=C1c2ccccc2-c2nc(C(N)=O)c(C#N)nc21 [Example 34b, 2-Cyano-9-ethoxyimino-9H-indeno[1,2-b]pyrazine-3-carboxylic acid amide]	2510	99	523	479	469	–	–	–
N#CNc1nc2c(nc1C#N)C(=O)c1ccccc1-2 [Example 21, 2-cyano-9-oxo-9H-indeno[1,2-b]pyrazin-3-yl-cyanamide]	–	> 100000	> 100000	–	–	> 100000	> 10000	> 10000
COc1ccc(OC)c2c1C(=O)c1nc(C#N)c(C#N)nc1-2 [Example 17f, 5,8-Dimethoxy-9-oxo-9H-indeno[1,2-b]pyrazine-2,3-dicarbonitrile]	–	600	3300	–	–	12700	800	930
N#Cc1nc2c(nc1C#N)-c1ccccc1C2=NO [Example 12, 9-[hydroxyimino]-9H-indeno[1,2-b]pyrazine-2,3-dicarbonitrile]	–	1300	45000	–	–	> 100000	4400	6500
COc1nc2c(nc1C#N)C(=O)c1ccccc1-2 [Example 3, 3-methoxy-9-oxo-9H-indeno[1,2-b]pyrazine-2-carbonitrile]	–	13000	> 100000	–	–	> 100000	> 10000	> 10000
Cc1ccc2c(c1)-c1nc(C#N)c(C#N)nc1C2=O [Example 17e, 6-Methyl-9-oxo-9H-indeno[1,2-b]pyrazine-2,3-dicarbonitrile]	–	2100	7800	–	–	7200	1320	300
C=CCON=C1c2ccccc2-c2nc(C#N)c(C#N)nc21 (mixture of isomers) [Example 13b, 9-(Allyloxyimino)-9H-indeno[1,2-b]pyrazine-2,3-dicarbonitrile]	> 100000	10000	> 100000	540	580	–	–	–
